Measurements: ChEMBL document CHEMBL1123029, “Synthesis and biological evaluation of phosphonamidate peptide inhibitors of enkephalinase and angiotensin-converting enzyme” (J Med Chem, 1985)
pKi: −log10 of the molar value.

What follows are compounds tested against T1, Neprilysin (Rattus norvegicus, UniProt P07861) (assay: Binding affinity towards enkephalinase (metalloendopeptidase, E.C.3.4.24.11) of rat kidney).
T1 sequence (P07861 whole entry): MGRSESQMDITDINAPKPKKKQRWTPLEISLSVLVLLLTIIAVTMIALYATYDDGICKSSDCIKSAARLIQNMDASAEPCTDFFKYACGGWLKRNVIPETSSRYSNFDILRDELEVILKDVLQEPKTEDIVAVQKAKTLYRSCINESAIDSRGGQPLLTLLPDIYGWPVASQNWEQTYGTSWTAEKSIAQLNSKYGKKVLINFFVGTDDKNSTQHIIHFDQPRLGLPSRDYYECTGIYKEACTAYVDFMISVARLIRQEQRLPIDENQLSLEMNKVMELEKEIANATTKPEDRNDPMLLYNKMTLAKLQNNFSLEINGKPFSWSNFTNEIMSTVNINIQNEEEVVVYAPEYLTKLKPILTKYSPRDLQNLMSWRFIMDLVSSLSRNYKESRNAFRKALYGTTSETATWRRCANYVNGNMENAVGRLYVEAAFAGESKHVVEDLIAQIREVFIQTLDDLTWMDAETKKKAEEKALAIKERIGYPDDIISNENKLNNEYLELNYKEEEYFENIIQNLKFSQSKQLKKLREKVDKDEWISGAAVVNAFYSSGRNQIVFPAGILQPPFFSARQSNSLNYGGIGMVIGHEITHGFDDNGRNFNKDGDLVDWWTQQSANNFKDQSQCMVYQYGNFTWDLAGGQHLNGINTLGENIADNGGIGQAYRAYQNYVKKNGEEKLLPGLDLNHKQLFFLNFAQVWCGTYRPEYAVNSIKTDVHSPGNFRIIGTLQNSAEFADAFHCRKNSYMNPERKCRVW

| Compound | pKi |
| --- | --- |
| CCOP(=O)(CNC(C)=O)NC(Cc1ccccc1)NC(CCSC)C(=O)O (configuration not stated) | 3.80 |
| CC(C)CC(NC(Cc1ccccc1)NP(=O)(O)CNC(=O)c1ccccc1)C(=O)O (configuration not stated) | 4.97 |
| CC(C)CC(NC(Cc1ccccc1)NP(=O)(O)CNC(=O)Cc1ccccc1)C(=O)O (configuration not stated) | 4.10 |
| CC(C)CC(NC(Cc1ccccc1)NP(=O)(O)CNC(=O)CCc1ccccc1)C(=O)O (configuration not stated) | 2.92 |
| CSCCC(NC(Cc1ccccc1)NP(=O)(O)CNC(C)=O)C(=O)O (configuration not stated) | 6.85 |
| CC(=O)NCP(=O)(O)NC(Cc1ccccc1)NC(CC(C)C)C(=O)O (configuration not stated) | 6.07 |
| CC(C)C[C@H](NP(=O)(O)O[C@@H]1O[C@@H](C)[C@H](O)[C@@H](O)[C@H]1O)C(=O)N[C@@H](Cc1c[nH]c2ccccc12)C(=O)O [PHOSPHORAMIDON] | 8.40 |
